# Laboratory results taken from patent US20150320705A1, “METHOD OF INHIBITING OR TREATING AMYOTROPHIC LATERAL SCLEROSIS WITH PHENOXYALKYLCARBOXYLIC ACIDS” (priority 2014, published 2015).
# Columns and labels:
# VAPB Drosophila mutants = test: Evaluation of anti-ALS activity on VAPB Drosophila mutants (viability); type: in vivo; conditions: VAPB mutant flies; for adult flies observed from seeded larvae: 3 replicates for riluzole and vitamin D (45 larvae seeded), 8 for MN-001 (120 larvae seeded)
# SOD deficient flies = type: in vivo, Drosophila; conditions: flies with interfered SOD gene, MN-001 tested at 0.08 mM, 0.8 mM, 8 mM (DMSO), FIG. 3
# Protocol: Drosophila males will be collected and keep on fly food for 24 h. Then flies will be transferred to vials containing 3-mm paper filter disks saturated with 250 μl of 1% sucrose containing 2 mM paraquat or 1% sucrose, 2 mM paraquat and the tested compound. The vials will be stored at 25° C. in the dark, and flies are enumerated after 24 h.
# Three replicas for each concentration will be performed in the same day and three replicas of the assay will be performed in different days.
# The experiment includes the analysis of four compound concentrations (10, 100, 250 and 1000 μM) and will evaluate 360 flies for each concentration (8 replicates×3 days with 15 flies each one). Resistance to paraquat treatment will be indicative of positive activity of the compound tested. See, FIG. 2.
# MN-001 was tested at concentrations of 0.08 mM, 0.8 mM, 8 mM (DMSO).
compound,measurement,setting,value
vitamin D,adult flies observed from seeded larvae,VAPB Drosophila mutants,1 adult was observed in one of the 3 replicates
CCCc1c(SCCCOc2ccc(C(C)=O)c(OCCCC(=O)O)c2CCC)ccc(C(C)=O)c1O [MN-001],adult flies observed from seeded larvae,VAPB Drosophila mutants,5 of 8 wells displayed adults but only 1 adult in each of them
same,viability,VAPB Drosophila mutants; compared with DMSO,increase viability in a statistically significant manner
same,survival (or survivorship) percentages after paraquat exposure,SOD deficient flies,increased this survival in a dose dependent manner
Nc1nc2ccc(OC(F)(F)F)cc2s1 [riluzole],adult flies observed from seeded larvae,VAPB Drosophila mutants,No adult flies were observed
vitamin E,survival (or survivorship) percentages after paraquat exposure,SOD deficient flies,increased this percentage
